# Tested on: Lung cancer cell line NCI-H358 containing KRas G12C mutation
# Assay: Assay for cell proliferation (Cell-titer Glo, 5 days)
# Format: cell-based, human
# Settings: Homo sapiens, NCI-H358, 120 h, NCI-H358, 5 days, Cell-titer Glo; read-out: IC50 (nM), Inhibition of NCI-H358 Cell Proliferation
# Protocol: One hundred fifty microliter (150 μL) of media containing 2000 cells per well were seeded into each well of a 96-well culture plate and left to attach overnight in a 37° C. incubator with 5% CO2. Diluted compounds of 0.75 μL for each well were added by liquid handler at a final concentration of 0.5% DMSO. Cells were treated for 5 days in the incubator. Cell-titer Glo (CTG) kit (Promega) was used to assess cell proliferation. Of note, 120 μL of CTG reagent was added to each well and incubated at RT for 10 minutes.
row,IC50,SMILES
1,27 nM,C=CC(=O)N1CCN(c2nc(=O)n(-c3c(C(C)C)nc(N(C)S(C)(=O)=O)nc3C(C)C)c3nc(-c4ccccc4F)c(F)cc23)[C@@H](C)C1 [Compound 56]
2,> 3000 nM,C=CC(=O)N1CCN(c2nc(=O)n(-c3c(C)ccnc3C(C)C)c3nc(-c4cccc5[nH]nc(N)c45)c(F)cc23)[C@@H](C)C1 [Compound 59]
3,81.7 nM,C=CC(=O)N1CCN(c2nc(=O)n(-c3c(C)cc(S(C)(=O)=O)nc3C(C)C)c3nc(-c4c(O)cccc4F)c(F)cc23)[C@@H](C)C1 [Compound 60]
4,71.2 nM,C=CC(=O)N1CCN(c2nc(=O)n(-c3c(C4CC4)nc(OC)nc3C3CC3)c3nc(-c4ccccc4F)c(F)cc23)[C@@H](C)C1 [Compound 61]
5,15.9 nM,C=CC(=O)N1CCN(c2nc(=O)n(-c3c(C4CC4)nc(OC)nc3C3CC3)c3nc(-c4c(O)cccc4F)c(F)cc23)[C@@H](C)C1 [Compound 62]
6,17.6 nM,C=CC(=O)N1CCN(c2nc(=O)n(-c3c(C(C)C)nc4c(ncn4C)c3C)c3nc(-c4ccccc4F)c(Cl)cc23)[C@@H](C)C1 [Compound 65]
7,19.9 nM,C=CC(=O)N1CCN(c2nc(=O)n(-c3c(C(C)C)cc4scnc4c3C)c3nc(-c4ccccc4F)c(Cl)cc23)[C@@H](C)C1 [Compound 66]
8,46.5 nM,C=CC(=O)N1CCN(c2nc(=O)n(-c3c(C(C)C)cc4c(ncn4C)c3C)c3nc(-c4ccccc4F)c(Cl)cc23)[C@@H](C)C1 [Compound 67]
9,344 nM,C=CC(=O)N1CCN(c2nc(=O)n(-c3c(C)cc4scnc4c3C(C)C)c3nc(-c4ccccc4F)c(Cl)cc23)[C@@H](C)C1 [Compound 68]
10,15.1 nM,C=CC(=O)N1CCN(c2nc(=O)n(-c3cc4ncn(C)c4nc3C(C)C)c3nc(-c4ccccc4F)c(Cl)cc23)[C@@H](C)C1 [Compound 70]
11,20.1 nM,C=CC(=O)N1CCN(c2nc(=O)n(-c3ccc4scnc4c3C(C)C)c3nc(-c4ccccc4F)c(Cl)cc23)[C@@H](C)C1 [Compound 71]
12,66 nM,C=CC(=O)N1CCN(c2nc(=O)n(-c3c(C(C)C)nc4c(ncn4C)c3C)c3nc(-c4ccccc4F)c(F)cc23)[C@@H](C)C1 [Compound 73]
13,5.7 nM,C=CC(=O)N1CCN(c2nc(=O)n(-c3c(C4CC4)nc(OC)nc3C3CC3)c3nc(-c4c(N)cccc4F)c(F)cc23)[C@@H](C)C1 [Compound 74]
14,8.6 nM,C=CC(=O)N1CCN(c2nc(=O)n(-c3c(C(C)C)nc(C)nc3C(C)C)c3nc(-c4c(O)cccc4F)c(F)cc23)[C@@H](C)C1 [Compound 77]
15,10.4 nM,C=CC(=O)N1CCN(c2nc(=O)n(-c3c(C(C)C)nc(C)nc3C(C)C)c3nc(-c4c(N)cccc4F)c(F)cc23)[C@@H](C)C1 [Compound 78]
16,12.9 nM,C=CC(=O)N1C[C@H](C)N(c2nc(=O)n(-c3c(C4CC4)nc(OC)nc3C3CC3)c3nc(-c4c(O)cccc4F)c(F)cc23)C[C@H]1C [Compound 79]
17,8.1 nM,C=CC(=O)N1C[C@H](C)N(c2nc(=O)n(-c3c(C4CC4)nc(OC)nc3C3CC3)c3nc(-c4c(N)cccc4F)c(F)cc23)C[C@H]1C [Compound 80]
18,35.9 nM,C=CC(=O)N1CCN(c2nc(=O)n(-c3c(C)cc(OC)nc3C(C)C)c3nc(-c4c(O)cccc4F)c(F)cc23)[C@@H](C)C1 [Compound 81]
19,10.8 nM,C=CC(=O)N1CCN(c2nc(=O)n(-c3c(C(C)C)nc(N4CCNCC4)nc3C(C)C)c3nc(-c4c(O)cccc4F)c(Cl)cc23)[C@@H](C)C1 [Compound 82]
20,5.9 nM,C=CC(=O)N1CCN(c2nc(=O)n(-c3c(C(C)C)nc(N4CCNCC4)nc3C(C)C)c3nc(-c4c(N)cccc4F)c(Cl)cc23)[C@@H](C)C1 [Compound 83]
21,6.9 nM,C=CC(=O)N1C[C@H](C)N(c2nc(=O)n(-c3c(C(C)C)nc(N4CCNCC4)nc3C(C)C)c3nc(-c4ccccc4F)c(Cl)cc23)C[C@H]1C [Compound 84]

# Same assay, conditions: NCI-H358, 5 days, Cell-titer Glo; read-out: IC50 (nM), Inhibition of NCI-H358 Cell Proliferation
row,IC50,SMILES
1,7.8 nM,C=CC(=O)N1CCN(c2nc(=O)n(-c3c(C)cc4c(ncn4C)c3C(C)C)c3nc(-c4ccccc4F)c(Cl)cc23)[C@@H](C)C1 [Compound 69]

# Same assay, conditions: NCI-H358 IC50 comparison
row,SMILES,fold more potent: 2-amino-6-fluoro-phenyl compound vs. corresponding 2-fluoro-phenyl compound at R8
1,C=CC(=O)N1CCN(c2nc(=O)n(-c3c(C(C)C)nc(C)nc3C(C)C)c3nc(-c4c(N)cccc4F)c(F)cc23)[C@@H](C)C1 [Compound 78],only slightly more potent
